Data as given in the NIST ThermoML archive (doi:10.1021/je101139k).
± gives the expanded uncertainty stated by the source.

How the values were obtained:
[1] = Crystal; DTA
[2] = Molar enthalpy of transition or fusion; conditions: Crystal; DSC
[3] = molar heat capacity at constant pressure; conditions: 101.33 kPa, Small sample (50 mg) DSC

With `[Br-].[Br-].[Br-].[Pr+3]` [praseodymium(III) bromide] the Normal melting temperature [1] was 687 ± 1 °C, the “Molar enthalpy of transition or fusion” value [2] was 11.1 ± 0.359 kcal/mol and the “molar heat capacity at constant pressure” value ([3]; 298.15 K, Crystal) was 105.37 ± 7.6 J/K/mol. For the same compound, the “molar heat capacity at constant pressure” value ([3]; 300 K, Crystal) was 105.39 ± 7.6 J/K/mol, the “molar heat capacity at constant pressure” value ([3]; 331 K, Crystal) was 105.87 ± 7.6 J/K/mol and the “molar heat capacity at constant pressure” value ([3]; 400 K, Crystal) was 106.93 ± 7.7 J/K/mol. The “molar heat capacity at constant pressure” value ([3]; 500 K, Crystal) was 108.46 ± 7.8 J/K/mol, the “molar heat capacity at constant pressure” value ([3]; 600 K, Crystal) was 109.99 ± 7.9 J/K/mol and the “molar heat capacity at constant pressure” value ([3]; 700 K, Crystal) was 111.52 ± 8 J/K/mol. The “molar heat capacity at constant pressure” value ([3]; 800 K, Crystal) was 113.05 ± 8.1 J/K/mol, the “molar heat capacity at constant pressure” value ([3]; 900 K, Crystal) was 114.58 ± 8.2 J/K/mol and the “molar heat capacity at constant pressure” value ([3]; 960 K, Crystal) was 115.5 ± 8.3 J/K/mol. For the same compound, the “molar heat capacity at constant pressure” value ([3]; 960 K, Liquid) was 141.39 ± 10 J/K/mol, the “molar heat capacity at constant pressure” value ([3]; 1000 K, Liquid) was 141.39 ± 10 J/K/mol and the “molar heat capacity at constant pressure” value ([3]; 1065 K, Liquid) was 141.39 ± 10 J/K/mol. The “molar heat capacity at constant pressure” value ([3]; 1100 K, Liquid) was 141.39 ± 10 J/K/mol, the “molar heat capacity at constant pressure” value ([3]; 1191 K, Liquid) was 141.39 ± 10 J/K/mol and the “molar heat capacity at constant pressure” value ([3]; 1200 K, Liquid) was 141.39 ± 10 J/K/mol. For the same compound, the “molar heat capacity at constant pressure” value ([3]; 1300 K, Liquid) was 141.39 ± 10 J/K/mol.
